# Experimental data: ChEMBL document CHEMBL3425436, “Assessing the oral bioavailability of difluorosialic acid prodrugs, potent viral neuraminidase inhibitors, using a snapshot PK screening assay” (Bioorg Med Chem Lett, 2015)
# Tests used:
# [1] = test system: Mus musculus; assay: Total plasma concentration in CD1 mouse assessed as (2R,3R,4R,5R,6R)-5-acetamido-4-amino-2,3-difluoro-6-((1R,2R)-1,2,3-trihydroxypropyl)tetrahydro-2H-pyran-2-carboxylic acid at 30 mg/kg, po measured at 60 mins by reversed-phase UPLC/MS analysis; type: ADME, organism-based; design: dose 30 mg/kg, route oral; details: in vivo, 1 h
# [2] = test system: Mus musculus; assay: Total plasma concentration in CD1 mouse assessed as (2R,3R,4R,5R,6R)-5-acetamido-4-amino-2,3-difluoro-6-((1R,2R)-1,2,3-trihydroxypropyl)tetrahydro-2H-pyran-2-carboxylic acid at 30 mg/kg, po measured at 20 mins by reversed-phase UPLC/MS analysis; type: ADME, organism-based; design: dose 30 mg/kg, route oral; details: in vivo
# [3] = Stability in simulated gastric fluid at 10 uM at pH 1 measured at 60 mins; type: ADME; details: read-out: Stability
# [4] = Stability in simulated gastric fluid at 10 uM at pH 4 measured at 15 mins; type: ADME; details: read-out: Stability
# [5] = Stability in simulated gastric fluid at 10 uM at pH 4 measured at 60 mins; type: ADME; details: read-out: Stability
# [6] = Stability in simulated gastric fluid at 10 uM at pH 1 measured at 15 mins; type: ADME; details: read-out: Stability
# [7] = test system: Mus musculus; assay: Tmax in CD1 mouse assessed as (2R,3R,4R,5R,6R)-5-acetamido-4-amino-2,3-difluoro-6-((1R,2R)-1,2,3-trihydroxypropyl)tetrahydro-2H-pyran-2-carboxylic acid at 30 mg/kg, po; type: ADME, organism-based; design: dose 30 mg/kg, route oral; details: in vivo
# [8] = Metabolic stability in mouse plasma at 10 uM measured at 15 mins; type: ADME, cell-free; details: read-out: Stability
# [9] = test system: Mus musculus; assay: Oral bioavailability in CD1 mouse assessed as (2R,3R,4R,5R,6R)-5-acetamido-4-amino-2,3-difluoro-6-((1R,2R)-1,2,3-trihydroxypropyl)tetrahydro-2H-pyran-2-carboxylic acid at 30 mg/kg; type: ADME, organism-based; details: in vivo
# [10] = Metabolic stability in mouse plasma at 10 uM measured at 60 mins; type: ADME, cell-free; details: read-out: Stability
# [11] = test system: Mus musculus; assay: Cmax in CD1 mouse assessed as (2R,3R,4R,5R,6R)-5-acetamido-4-amino-2,3-difluoro-6-((1R,2R)-1,2,3-trihydroxypropyl)tetrahydro-2H-pyran-2-carboxylic acid at 30 mg/kg, po; type: ADME, organism-based; design: dose 30 mg/kg, route oral; details: in vivo
# [12] = test system: Mus musculus; assay: AUC in CD1 mouse assessed as (2R,3R,4R,5R,6R)-5-acetamido-4-amino-2,3-difluoro-6-((1R,2R)-1,2,3-trihydroxypropyl)tetrahydro-2H-pyran-2-carboxylic acid at 30 mg/kg, po; type: ADME, organism-based, Plasma; design: dose 30 mg/kg, route oral; details: in vivo
# [13] = Total plasma concentration in CD1 mouse at 30 mg/kg, po measured at 20 mins by reversed-phase UPLC/MS analysis; type: ADME, organism-based; design: dose 30 mg/kg, route oral
# [14] = Total plasma concentration in CD1 mouse at 30 mg/kg, po measured at 60 mins by reversed-phase UPLC/MS analysis; type: ADME, organism-based; design: dose 30 mg/kg, route oral
SMILES,concentration [1],concentration [2],also measured
CC(=O)N[C@@H]1[C@@H](N)[C@@H](F)[C@](F)(C(=O)NCc2ccccc2F)O[C@H]1[C@H](O)[C@H](O)CO,840 nM,660 nM,
COC(=O)[C@]1(F)O[C@@H]([C@H](O)[C@H]2COC3(CCCCC3)O2)[C@H](NC(C)=O)[C@@H](N)[C@H]1F,390 nM,,
CCCCCCCCCCCCOC(=O)[C@]1(F)O[C@@H]([C@H](O)[C@H](O)CO)[C@H](NC(C)=O)[C@@H](N)[C@H]1F,2920 nM,440 nM,
CCC1(CC)OC[C@H]([C@@H](O)[C@@H]2O[C@@](F)(C(=O)OC)[C@H](F)[C@H](N)[C@H]2NC(C)=O)O1,2250 nM,1950 nM,
COC(=O)[C@]1(F)O[C@@H]([C@H](O)[C@H]2COC(C(C)C)(C(C)C)O2)[C@H](NC(C)=O)[C@@H](N)[C@H]1F,730 nM,620 nM,
CC(=O)N[C@@H]1[C@@H](N)[C@@H](F)[C@](F)(C(=O)OCCCOC(=O)c2ccc3ccccc3c2O)O[C@H]1[C@H](O)[C@H](O)CO,300 nM,250 nM,
COC(=O)OC[C@@H](O)[C@@H](O)[C@@H]1O[C@@](F)(C(=O)OC)[C@H](F)[C@H](N)[C@H]1NC(C)=O,,90 nM,
CC(=O)N[C@@H]1[C@@H](N)[C@@H](F)[C@](F)(C(=O)OC2CCCC2)O[C@H]1[C@H](O)[C@H](O)CO,2880 nM,1030 nM,
COC(=O)[C@]1(F)O[C@@H]([C@H](O)[C@H](O)COC(=O)OCC(C)(C)C)[C@H](NC(C)=O)[C@@H](N)[C@H]1F,6010 nM,2100 nM,
CC(=O)N[C@@H]1[C@@H](N)[C@@H](F)[C@](F)(C(=O)OCC(=O)N(C)C)O[C@H]1[C@H](O)[C@H](O)CO,4390 nM,5690 nM,"remaining at 1 h, 10 µM [3]: 25%; remaining at 0.25 h, 10 µM [4]: 88%; remaining at 1 h, 10 µM [5]: 74%; remaining at 0.25 h, 10 µM [6]: 53%"
CCCCCCCCOC(=O)[C@]1(F)O[C@@H]([C@H](O)[C@H](O)CO)[C@H](NC(C)=O)[C@@H](N)[C@H]1F,7110 nM,3230 nM,
CC(=O)N[C@@H]1[C@@H](N)[C@@H](F)[C@](F)(C(N)=O)O[C@H]1[C@H](O)[C@H](O)CO,3330 nM,710 nM,
CC(=O)N[C@@H]1[C@@H](N)[C@@H](F)[C@](F)(C(=O)NCc2cccc(F)c2)O[C@H]1[C@H](O)[C@H](O)CO,810 nM,310 nM,
COC(=O)[C@]1(F)O[C@@H]([C@H](O)[C@H]2COC(=O)O2)[C@H](NC(C)=O)[C@@H](N)[C@H]1F,730 nM,350 nM,
COC(=O)[C@]1(F)O[C@@H]([C@H](O)[C@H](O)COC(=O)OCC(C)C)[C@H](NC(C)=O)[C@@H](N)[C@H]1F,11300 nM,9930 nM,"Tmax [7]: 1 h; remaining at 1 h, 10 µM [3]: 74%; remaining at 0.25 h, 10 µM [8]: 81%; F [9]: 3.9%; remaining at 0.25 h, 10 µM [4]: 98%; remaining at 1 h, 10 µM [5]: 86%; remaining at 1 h, 10 µM [10]: 17%; remaining at 0.25 h, 10 µM [6]: 90%; Cmax [11]: 2700 nM; AUC [12]: 293 µmol·min"
CC(=O)N[C@@H]1[C@@H](N)[C@@H](F)[C@](F)(C(=O)NC2CCCCC2)O[C@H]1[C@H](O)[C@H](O)CO,2150 nM,1140 nM,
CC(=O)N[C@@H]1[C@@H](N)[C@@H](F)[C@](F)(C(=O)OCC2CCCCC2)O[C@H]1[C@H](O)[C@H](O)CO,4670 nM,3410 nM,"Tmax [7]: 1 h; remaining at 1 h, 10 µM [3]: 100%; remaining at 0.25 h, 10 µM [8]: 98%; F [9]: 9.3%; remaining at 0.25 h, 10 µM [4]: 100%; remaining at 1 h, 10 µM [5]: 100%; remaining at 1 h, 10 µM [10]: 64%; remaining at 0.25 h, 10 µM [6]: 100%; Cmax [11]: 1200 nM; AUC [12]: 736 µmol·min"
CC(=O)N[C@H]1[C@H]([C@H](O)[C@H](O)CO)OC(C(=O)O)=C[C@@H]1N=C(N)N [ZANAMIVIR],,,concentration at 20 min [13]: 1310 nM; concentration at 1 h [14]: 1300 nM

SMILES,concentration [1],concentration [2],also measured
COC(=O)[C@]1(F)O[C@@H]([C@H](O)[C@H](O)COC(=O)OC(C)C)[C@H](NC(C)=O)[C@@H](N)[C@H]1F,2690 nM,1680 nM,
CC(=O)N[C@@H]1[C@@H](N)[C@@H](F)[C@](F)(C(=O)OCCC(=O)N(C)C)O[C@H]1[C@H](O)[C@H](O)CO,3750 nM,1400 nM,
CCCCCCCCOC(=O)OC[C@@H](O)[C@@H](O)[C@@H]1O[C@@](F)(C(=O)OC)[C@H](F)[C@H](N)[C@H]1NC(C)=O,6880 nM,2970 nM,"Tmax [7]: 1 h; remaining at 1 h, 10 µM [3]: 90%; F [9]: 6.7%; remaining at 0.25 h, 10 µM [4]: 94%; remaining at 1 h, 10 µM [5]: 88%; remaining at 0.25 h, 10 µM [6]: 99%; Cmax [11]: 4100 nM; AUC [12]: 452 µmol·min"
CC(=O)N[C@@H]1[C@@H](N)[C@@H](F)[C@](F)(C(=O)OCCCCC(F)(F)F)O[C@H]1[C@H](O)[C@H](O)CO,4020 nM,2540 nM,
CC(=O)N[C@@H]1[C@@H](N)[C@@H](F)[C@](F)(C(=O)OC(C)C)O[C@H]1[C@H](O)[C@H](O)CO,13000 nM,12200 nM,"Tmax [7]: 1 h; remaining at 1 h, 10 µM [3]: 98%; remaining at 0.25 h, 10 µM [8]: 100%; F [9]: 0.9%; remaining at 0.25 h, 10 µM [4]: 99%; remaining at 1 h, 10 µM [5]: 99%; remaining at 1 h, 10 µM [10]: 87%; remaining at 0.25 h, 10 µM [6]: 100%; Cmax [11]: 500 nM; AUC [12]: 78 µmol·min"
CC(=O)N[C@@H]1[C@@H](N)[C@@H](F)[C@](F)(C(=O)NCc2ccccc2)O[C@H]1[C@H](O)[C@H](O)CO,590 nM,270 nM,
CC(=O)N[C@@H]1[C@@H](N)[C@@H](F)[C@](F)(C(=O)OCCCCCOC(=O)C(C)(C)C)O[C@H]1[C@H](O)[C@H](O)CO,3770 nM,1870 nM,
CC(=O)N[C@@H]1[C@@H](N)[C@@H](F)[C@](F)(C(=O)OCCCOC(=O)C(C)(C)C)O[C@H]1[C@H](O)[C@H](O)CO,3360 nM,1300 nM,
COC(=O)[C@]1(F)O[C@@H]([C@H](O)[C@H](O)COC(=O)OCC2c3ccccc3-c3ccccc32)[C@H](NC(C)=O)[C@@H](N)[C@H]1F,750 nM,620 nM,
COC(=O)CNC(=O)[C@]1(F)O[C@@H]([C@H](O)[C@H](O)CO)[C@H](NC(C)=O)[C@@H](N)[C@H]1F,4390 nM,2550 nM,
COC(=O)[C@]1(F)O[C@@H]([C@H](O)[C@H](O)COP(=O)(OC)OC)[C@H](NC(C)=O)[C@@H](N)[C@H]1F,620 nM,960 nM,
COC(=O)[C@]1(F)O[C@@H]([C@H](O)[C@H](O)CO)[C@H](NC(C)=O)[C@@H](N)[C@H]1F,5340 nM,6440 nM,"Tmax [7]: 1 h; remaining at 1 h, 10 µM [3]: 75%; remaining at 0.25 h, 10 µM [8]: 90%; F [9]: 2.2%; remaining at 0.25 h, 10 µM [4]: 100%; remaining at 1 h, 10 µM [5]: 99%; remaining at 1 h, 10 µM [10]: 6%; remaining at 0.25 h, 10 µM [6]: 100%; Cmax [11]: 1600 nM; AUC [12]: 219 µmol·min"
CCOC(=O)[C@]1(F)O[C@@H]([C@H](O)[C@H](O)CO)[C@H](NC(C)=O)[C@@H](N)[C@H]1F,3580 nM,2070 nM,
CC(=O)N[C@@H]1[C@@H](N)[C@@H](F)[C@](F)(C(=O)NCCO)O[C@H]1[C@H](O)[C@H](O)CO,1390 nM,690 nM,
COC(=O)[C@]1(F)O[C@@H]([C@H](O)[C@H]2COC3(CCCC3)O2)[C@H](NC(C)=O)[C@@H](N)[C@H]1F,1690 nM,490 nM,
CCCCCOC(=O)[C@]1(F)O[C@@H]([C@H](O)[C@H](O)CO)[C@H](NC(C)=O)[C@@H](N)[C@H]1F,3500 nM,2740 nM,"Tmax [7]: 1 h; remaining at 1 h, 10 µM [3]: 96%; remaining at 0.25 h, 10 µM [8]: 81%; F [9]: 5.5%; remaining at 0.25 h, 10 µM [4]: 100%; remaining at 1 h, 10 µM [5]: 100%; remaining at 1 h, 10 µM [10]: 24%; remaining at 0.25 h, 10 µM [6]: 99%; Cmax [11]: 4700 nM; AUC [12]: 462 µmol·min"
CCOP(=O)(OCC)OC[C@@H](O)[C@@H](O)[C@@H]1O[C@@](F)(C(=O)OC)[C@H](F)[C@H](N)[C@H]1NC(C)=O,2550 nM,1000 nM,
CC(=O)N[C@@H]1[C@@H](N)[C@@H](F)[C@](F)(C(=O)OCCCCCOC(=O)c2ccc3ccccc3c2O)O[C@H]1[C@H](O)[C@H](O)CO,800 nM,290 nM,
